{"source": "patent US4631293A", "about": "“(-) Campholenic acid ester of salicylic acid and pharmaceutically acceptable salts thereof having mucosecretolytic, anti-inflammatory, analgesic, and antipyretic activity” (Camillo Corvi S.p.A., priority 1984, dated 1986)", "key": {"[1]": {"assay": "Lethal dose 50 (LD50) in the mouse after a single oral administration", "format": "in vivo", "details": "in vivo, single administration, 14th day mortality", "experimental": "(§1) Method for studying the lethal dose 50(LD50) in the mouse after a single administration.\n(§2) Groups of 10 Swiss albine, female, adult (20-22 g of body weight) mice, fasting from the evening preceding the test, are treated orally with various doses of the test drug suspended in hydroxyethylcellulose (0.50% weight/volume).\n(§3) Thereafter, the animals are fed again.\n(§4) LD50 is calculated by the method of Litchfield J. T. and Wilcoxon F. (J. Pharmacol. 96, 99-113, 1949) by utilizing the mortality data as obtained on the 14th day after the test drug administration."}, "mouse [2]": {"system": "mouse", "assay": "Lethal dose 50 (LD50) in the mouse after a single oral administration", "format": "in vivo", "details": "in comparison with acetylsalicylic acid", "experimental": "as §1, §2, §3, §4"}, "bronchial secretion": {"system": "bronchial secretion", "assay": "Bronchosecretagogue activity: quantitative evaluation of the bronchial secretion of rabbit (Scuri et al.)", "format": "in vivo, rabbit (adult male brown)", "details": "oral", "text": "Method of quantitative evaluation of the bronchial secretion of rabbit according to Scuri R. et al. Boll. Chim. Farm. […] Adult male brown rabbits (2.8-3.5 kg of body weight) are employed, to which a T shaped tracheal cannula, by surgical operation, as described in the mentioned bibliographic reference, is applied. To the cannula, a container for periodical collection of the bronchial secretion is applied. The study of mucoproduction, started at the fourth day after the operation, is divided into two periods, each of 4 hours, for collecting and measuring the mucus secreted. The action of the drug under examination, is tested by administering the same orally at the begining of the second mucus collection period and evaluating the percent increase of mucus production (as measured gravimetrically in the second period in comparison with the first period)."}, "[3]": {"system": "carrageenin induced oedema", "assay": "Anti-oedemigenous activity: carrageenin induced oedema (Winter et al.)", "format": "in vivo, rat (female albine Wistar)", "details": "for ED40: 3 h, read-out: Anti-oedemigenous activity ED40", "experimental": "Method of carrageenin induced oedema according to Winter C. A. et al--Proc. Soc. […] Female albine Wistar rats (120-160 g of body weight) are utilized. The drug under test is administered orally one hour before injection into the right hind paw of a carrageenin water suspension (1% volume injected ml 0.05)."}, "pleural exudate": {"system": "pleural exudate", "assay": "Anti-exudative activity: quantitative evaluation of the pleural exudate of a rat (carrageenin pleuritis)", "format": "in vivo, rat (female albine Wistar)", "details": "for ED50: 6 h, read-out: Anti-exudative activity ED50", "experimental": "Method of the quantitative evaluation of the pleural exudate of a rat according to Vinegar E. et al.-Proc. Soc. […] Female albine Wistar rats (average weight 160 g), fasting from the evening preceding the test, are used. The experimental pleuritis is induced by injecting into the pleural cavity, under ethereal anesthesia, 0.15 ml of a 1% carrageenin solution (Prodotti Gianni-Milano). The test drug is administered orally, half an hour before the carrageenin. Six hours after the carrageenin injection, the animals are sacrificed and volumetric measurement of the pleural exudate, as withdrawn by a syringe, is performed."}, "[4]": {"system": "phenylquinone abdominal contractions", "assay": "Analgesic activity: phenylquinone method (abdominal contractions)", "format": "in vivo, mouse (female Swiss albine)", "details": "for ED50: read-out: Analgesic activity ED50; for analgesic activity (in words): oral, comparison with acetylsalicylic acid", "experimental": "Female Swiss albine mice (20-25 g), fasting for 2 hours, are utilized.\nThe test drug is administered orally 30 minutes before the endoperitoneal injection of phenylquinone (0.08 mg/mouse).\nThe characteristic abdominal contractions are counted individually during a 20 minutes period."}, "yeast induced pyrexia": {"system": "yeast induced pyrexia", "assay": "Antipyretic activity: yeast induced pyrexia in the rat", "format": "in vivo, rat (female Wistar albine)", "details": "for ED50: oral simultaneously with yeast, Temperature Index", "experimental": "Method of yeast induced pyrexia in the rat. Female Wistar albine rats, weighing 100-140 g, are utilized. The animals having a basal rectal temperature from 36° to 37° C. are selected. The testing substances are administered orally simultaneously with the pyretic agent (dry brewers' yeast suspended in water at the 20% concentration, administered volume 15 ml/kg, subcutaneously) to groups of 5 animals per dose. After 4, 5, 6, 7 and 24 hours from the treatment, the rectal temperature of the animals is recorded by an Ellab RM6 probe, connected to an Ellab-mod. TE-3 thermometer. The activity of the drugs is evaluated by utilizing a Temperature Index, which is given by the algebraic sum of the differences in the rectal temperature between the measure values at different times and the basal value;"}, "[5]": {"assay": "Gastric tolerability: gastric ulcerogenesys by repeated drug administrations", "format": "in vivo, rat (female Wistar albine)", "details": "rat, in vivo, po", "experimental": "(§5) Method of gastric ulcerogenesys by repeated drug administrations.\n(§6) Fed female Wistar albine rats (140-160 g of initial body weight) are used.\n(§7) The drug under test is administered orally, daily, for five days. At the end of the test the stomach of the rats is withdrawn, it is dissected along the lesser curvature, washed and observed in order to disclose the presence of either gastric lesions or manifest submucosa hemorrhages.\n(§8) The \"ulcerogenic dose 50\" (UD50) is defined as the daily dose able to induce lesions or hemorrhages in 50% of the animals treated."}, "stomach [6]": {"system": "stomach", "assay": "Gastric tolerability: gastric ulcerogenesys by repeated drug administrations", "format": "in vivo, rat (female Wistar albine)", "details": "rat", "experimental": "as §5, §6, §7, §8"}, "mouse [7]": {"system": "mouse", "details": "literature datum, Hart E R J. Pharm. Exp. Ther. 89 205, 1947; 20160 min; cited from earlier work"}, "stomach [8]": {"system": "stomach", "details": "Arrigono-Martelli, Meth. Find. Exp. Clin. Pharmacol. 1, 157, 1979; 7200 min; cited from earlier work"}}, "note": "“Also recorded” adds a separate entry of the source. Read-outs that look alike come from different tables or passages of the source."}
{"smiles": "CC1=CCC(CC(=O)Oc2ccccc2C(=O)O)C1(C)C", "note": "(single isomer, unassigned) [CO/1473, 2-(2,2,3-trimethyl-3-cyclopentene-1-acetoxy)benzoic acid]", "values": [{"measurement": "LD50 at 336 h", "setting": "[1]", "result": 913, "unit": "mg/kg"}, {"measurement": "acute toxicity (in words)", "setting": "mouse [2]", "result": "low acute toxicity"}, {"measurement": "ED50", "setting": "bronchial secretion; Oryctolagus cuniculus, 4 h, percent increase of mucus production", "result": 60, "unit": "mg/kg"}, {"measurement": "bronchosecretagogue activity (in words)", "setting": "bronchial secretion", "result": "has bronchosecretagogue activity in the rabbit"}, {"measurement": "ED40", "setting": "[3]; rat, oral one hour before carrageenin, paw volume after three hours", "result": 400, "unit": "mg/kg"}, {"measurement": "anti-oedemigenous activity in comparison with acetylsalicylic acid (in words)", "setting": "[3]; rat, oral, first test of Table 3", "result": "superior in the first test"}, {"measurement": "ED50", "setting": "pleural exudate; rat, oral half an hour before carrageenin, exudate volume after six hours", "result": 320, "unit": "mg/kg"}, {"measurement": "anti-exudative activity in comparison with acetylsalicylic acid (in words)", "setting": "pleural exudate; rat, oral, second test of Table 3", "result": "slightly inferior in the second"}, {"measurement": "ED50", "setting": "[4]; mouse, oral 30 minutes before phenylquinone", "result": 52, "unit": "mg/kg"}, {"measurement": "analgesic activity (in words)", "setting": "[4]; mouse", "result": "slightly more active than acetylsalicylic acid"}, {"measurement": "ED50", "setting": "yeast induced pyrexia", "result": 400, "unit": "mg/kg"}, {"measurement": "antipyretic activity (in words)", "setting": "yeast induced pyrexia; oral, comparison with acetylsalicylic acid", "result": "interesting antipyretic activity in the rat, though lower than the one of acetylsalicylic acid"}, {"measurement": "NOAEL at 120 h", "setting": "[5]", "result": 800, "unit": "mg/kg"}, {"measurement": "gastro-damaging effect (in words)", "setting": "stomach [6]; up to the maximum dose of 800 mg/kg os/die for 5 days, listed as compound of the invention, 800 mg/kg", "result": "does not show any gastro-damaging effect; also recorded: very good gastric tolerability"}]}
{"smiles": "CC(=O)Oc1ccccc1C(=O)O", "note": "[acetylsalicylic acid, reference compound]", "values": [{"measurement": "Bronchosecretagogue activity ED50", "setting": "bronchial secretion; percent increase of mucus production", "result": "inactive"}, {"measurement": "ED40", "setting": "[3]; Rattus norvegicus, po", "result": 400, "unit": "mg/kg"}, {"measurement": "ED50", "setting": "pleural exudate; Rattus norvegicus, po", "result": 215, "unit": "mg/kg"}, {"measurement": "ED50", "setting": "[4]; Mus musculus, po", "result": 70, "unit": "mg/kg"}, {"measurement": "analgesic activity (in words)", "setting": "[4]; mouse", "result": "good analgesic activity in the mouse"}, {"measurement": "ED50", "setting": "yeast induced pyrexia", "result": 157, "unit": "mg/kg"}, {"measurement": "gastro-damaging dose, times lower than that of CO/1473", "setting": "stomach [6]; oral, acetylsalicylic acid dose versus CO/1473 dose", "result": 16, "unit": "times lower"}, {"measurement": "LD50", "setting": "mouse [7]", "result": 1100, "unit": "mg/kg os."}, {"measurement": "UD50 (ulcerogenic dose 50)", "setting": "stomach [8]", "result": 48, "unit": "mg/kg os."}]}
